In patent publication US20210278408A1, “METHODS OF TREATMENT OF CANCER WITH SUBSTITUTED PYRROLE AND PYRAZOLE COMPOUNDS AND DIAGNOSIS OF CANCERS SUSCEPTIBLE TO TREATMENT WITH SUBSTITUTED PYRROLE AND PYRAZOLE COMPOUNDS” (Bantam Pharmaceutical, LLC, priority 2018, published 2021):
Where a name gives a salt, the structure may show the parent alone.

The compounds below were run on BJAB (malignant human B-cell-line) (assay: BJAB cell proliferation). Conditions: BJAB (malignant human B-cell-line) cell proliferation, EC50; read-out: BJAB.
Format: cell-based
From the text: In certain embodiments, the therapeutic compound is one of the compounds of the compound table below. […] In certain embodiments, the therapeutic compound is a compound having an activity as “A,” “B” or “C” in the table below. In certain embodiments, the therapeutic compound is a compound having an activity as “A” or “B” in the table below. In certain embodiments, the therapeutic compound is a compound having an activity as “A” in the table below.
In certain embodiments, the therapeutic compound is one of the compounds of the compound table below, optionally provided as a pharmaceutically-acceptable salt or N-oxide, and/or a solvate or hydrate. […] In certain embodiments, the therapeutic compound is a compound having an activity as “A,” “B” or “C” in the table below. In certain embodiments, the therapeutic compound is a compound having an activity as “A” or “B” in the table below. In certain embodiments, the therapeutic compound is a compound having an activity as “A” in the table below.

| SMILES | EC50 [µM] |
| --- | --- |
| CCN1CCN(c2nc(-n3nc(C)c(-c4cccc(F)c4)c3C(=O)O)sc2SC(C)C)CC1 [Compound B26, 1-(4-(4-ethylpiperazin-1-yl)-5-(isopropylthio)thiazol-2-yl)-4-(3-fluorophenyl)-3-methyl-1H-pyrazole-5-carboxylic acid] | > 20 |
| CC(=O)N1CCN(c2nc(-n3nc(C)c(-c4cccc(F)c4)c3C(=O)O)sc2SC(C)C)CC1 [Compound B27, 1-(4-(4-acetylpiperazin-1-yl)-5-(isopropylthio)thiazol-2-yl)-4-(3-fluorophenyl)-3-methyl-1H-pyrazole-5-carboxylic acid] | > 20 |
| Cc1nn(-c2nc(N3CCC(C)CC3)c(SC(C)C)s2)c(C(=O)O)c1-c1cccc(F)c1 [Compound B28, 4-(3-fluorophenyl)-1-(5-(isopropylthio)-4-(4-methylpiperidin-1-yl)thiazol-2-yl)-3-methyl-1H-pyrazole-5-carboxylic acid] | 1 to 5 |
| Cc1nn(-c2nnc(-c3ccc(C(F)(F)F)cc3)s2)c(C(=O)O)c1-c1cccc(F)c1 [Compound B30, 4-(3-fluorophenyl)-3-methyl-1-(5-(4-(trifluoromethyl)phenyl)-1,3,4-thiadiazol-2-yl)-1H-pyrazole-5-carboxylic acid] | > 20 |
| COCCN(C)c1sc(-n2nc(C)c(-c3cccc(F)c3)c2C(=O)O)nc1-c1ccc(C(F)(F)F)cc1 [Compound B31, 4-(3-fluorophenyl)-1-(5-((2-methoxyethyl)(methyl)amino)-4-(4-(trifluoromethyl)phenyl)thiazol-2-yl)-3-methyl-1H-pyrazole-5-carboxylic acid] | 1 to 5 |
| Cc1nn(-c2nc(N3CCC(C)(C)CC3)c(SC(C)C)s2)c(C(=O)O)c1-c1cccc(F)c1 [Compound B32, 1-(4-(4,4-dimethylpiperidin-1-yl)-5-(isopropylthio)thiazol-2-yl)-4-(3-fluorophenyl)-3-methyl-1H-pyrazole-5-carboxylic acid] | < 1 |
| Cc1nn(-c2nc(N3CCN(C(=O)OC(C)(C)C)CC3)c(SC(C)C)s2)c(C(=O)O)c1-c1cccc(F)c1 [Compound B33, 1-(4-(4-(tert-butoxycarbonyl)piperazin-1-yl)-5-(isopropylthio)thiazol-2-yl)-4-(3-fluorophenyl)-3-methyl-1H-pyrazole-5-carboxylic acid] | > 20 |
| Cc1nn(-c2nc(N3CCC(C(F)(F)F)C3)c(SC(C)C)s2)c(C(=O)O)c1-c1cccc(F)c1 (stereo not shown) [Compound B34, 4-(3-fluorophenyl)-1-(5-(isopropylthio)-4-(3-(trifluoromethyl)pyrrolidin-1-yl)thiazol-2-yl)-3-methyl-1H-pyrazole-5-carboxylic acid] | 1 to 5 |
| Cc1nn(-c2nc(N3CCNCC3)c(SC(C)C)s2)c(C(=O)O)c1-c1cccc(F)c1 [Compound B35, 4-(3-fluorophenyl)-1-(5-(isopropylthio)-4-(piperazin-1-yl)thiazol-2-yl)-3-methyl-1H-pyrazole-5-carboxylic acid hydrochloric acid salt] | > 20 |
| CC(C)=Cc1sc(-n2nc(C)c(-c3cccc(F)c3)c2C(=O)O)nc1-c1ccc(C(F)(F)F)cc1 [Compound B36, 4-(3-fluorophenyl)-3-methyl-1-(5-(2-methylprop-1-en-1-yl)-4-(4-(trifluoromethyl)phenyl)thiazol-2-yl)-1H-pyrazole-5-carboxylic acid] | < 1 |
| CC(C)=Cc1nc(-n2nc(C)c(-c3cccc(F)c3)c2C(=O)O)sc1-c1ccc(C(F)(F)F)cc1 [Compound B37, 4-(3-fluorophenyl)-3-methyl-1-(4-(2-methylprop-1-en-1-yl)-5-(4-(trifluoromethyl)phenyl)thiazol-2-yl)-1H-pyrazole-5-carboxylic acid] | 10 to 25 |
| Cc1nn(-c2nc(-c3ccc(C(F)(F)F)cc3)c(-c3ccc(C(F)(F)F)cc3)s2)c(C(=O)O)c1-c1cccc(F)c1 [Compound B38, 1-(4,5-bis(4-(trifluoromethyl)phenyl)thiazol-2-yl)-4-(3-fluorophenyl)-3-methyl-1H-pyrazole-5-carboxylic acid] | < 1 |
| Cc1nn(-c2nc(-c3ccc(C(F)(F)F)cc3)c(-c3ccc(C(F)(F)F)cc3)s2)cc1-c1cccc(F)c1 [Compound B39, 2-(4-(3-fluorophenyl)-3-methyl-1H-pyrazol-1-yl)-4,5-bis(4-(trifluoromethyl)phenyl)thiazole] | > 20 |
| Cc1nn(-c2nc(N3CCC(C(C)(C)C)CC3)c(SC(C)C)s2)c(C(=O)O)c1-c1cccc(F)c1 [Compound B40, 1-(4-(4-(tert-butyl)piperidin-1-yl)-5-(isopropylthio)thiazol-2-yl)-4-(3-fluorophenyl)-3-methyl-1H-pyrazole-5-carboxylic acid] | < 1 |
| Cc1nn(-c2nc(N3CCC4(CC3)CC4)c(SC(C)C)s2)c(C(=O)O)c1-c1cccc(F)c1 [Compound B41, 4-(3-fluorophenyl)-1-(5-(isopropylthio)-4-(6-azaspiro[2.5]octan-6-yl)thiazol-2-yl)-3-methyl-1H-pyrazole-5-carboxylic acid] | 1 to 5 |
| COC1(C(F)(F)F)CCN(c2nc(-n3nc(C)c(-c4cccc(F)c4)c3C(=O)O)sc2SC(C)C)CC1 [Compound B42, 4-(3-fluorophenyl)-1-(5-(isopropylthio)-4-(4-methoxy-4-(trifluoromethyl)piperidin-1-yl)thiazol-2-yl)-3-methyl-1H-pyrazole-5-carboxylic acid] | < 1 |
| COc1ccc(-c2nc(-n3nc(C)c(-c4cccc(F)c4)c3C(=O)O)sc2-c2ccc(C(F)(F)F)cc2)cc1 [Compound B43, 4-(3-fluorophenyl)-1-(4-(4-methoxyphenyl)-5-(4-(trifluoromethyl)phenyl)thiazol-2-yl)-3-methyl-1H-pyrazole-5-carboxylic acid] | 1 to 5 |
| COc1ccc(-c2nc(-n3nc(C)c(-c4cccc(F)c4)c3C(=O)O)sc2-c2ccc(OC)cc2)cc1 [Compound B44, 1-(4,5-bis(4-methoxyphenyl)thiazol-2-yl)-4-(3-fluorophenyl)-3-methyl-1H-pyrazole-5-carboxylic acid] | 10 to 25 |
| COc1ccc(-c2sc(-n3nc(C)c(-c4cccc(F)c4)c3C(=O)O)nc2-c2ccc(C(F)(F)F)cc2)cc1 [Compound B45, 4-(3-fluorophenyl)-1-(5-(4-methoxyphenyl)-4-(4-(trifluoromethyl)phenyl)thiazol-2-yl)-3-methyl-1H-pyrazole-5-carboxylic acid] | < 1 |
| Cc1nn(-c2nc(N3CCN(C(C)(C)C)C(=O)C3)c(SC(C)C)s2)c(C(=O)O)c1-c1cccc(F)c1 [Compound B46, 1-(4-(4-(tert-butyl)-3-oxopiperazin-1-yl)-5-(isopropylthio)thiazol-2-yl)-4-(3-fluorophenyl)-3-methyl-1H-pyrazole-5-carboxylic acid] | > 20 |
| CNC(=O)CCc1sc(-n2nc(C)c(-c3cccc(F)c3)c2C(=O)O)nc1-c1ccc(C(F)(F)F)cc1 [Compound B47, 4-(3-fluorophenyl)-3-methyl-1-(5-(3-(methylamino)-3-oxopropyl)-4-(4-(trifluoromethyl)phenyl)thiazol-2-yl)-1H-pyrazole-5-carboxylic acid] | > 20 |
| COCCOC1(C(F)(F)F)CCN(c2nc(-n3nc(C)c(-c4cccc(F)c4)c3C(=O)O)sc2SC(C)C)CC1 [Compound B48, 4-(3-fluorophenyl)-1-(5-(isopropylthio)-4-(4-(2-methoxyethoxy)-4-(trifluoromethyl)piperidin-1-yl)thiazol-2-yl)-3-methyl-1H-pyrazole-5-carboxylic acid] | 1 to 5 |
